The source of these data is patent US20170253581A1, “SUBSTITUTED HETEROCYCLES AS c-MYC TARGETING AGENTS” (Northwestern University, priority 2016, published 2017).

This assay concerns the target Myc/Max binding to DNA (Homo sapiens, UniProt P01106). As to the kind of experiment: Electrophoretic mobility shift assay (EMSA) of Myc/Max binding to DNA. The assay is classed as biochemical. The note with it: for remaining activity at 200 µM: read-out: Bound DNA (%) (200uM); for remaining activity at 100 µM: 100 uM test compound, read-out: Bound DNA (%) (100uM). On the procedure: We also tested our best hit compound Min9 (NUCC-0176234) and newly synthesized analogs for effects of these compounds on Myc/Max binding to DNA in electrophoretic mobility shift assays (EMSAs). (See FIG. 5a and FIG. 5b). We expected the active compounds to impair Myc/Max binding to DNA. Several strucutural analogs of Min9 were tested over multiple doses for inhibiting Myc-DNA binding and we observed a dose-dependent inhibition. (See FIG. 5c).
Additional compounds were synthesized and tested in the EMSA assay at concentrations of 200 μM, 100 μM, and 50 μM.
In general terms: In EMSA bound probe runs differently from free probe, usually more slowly.

pIC50: −log10 of the molar value.

Sequence of Myc/Max binding to DNA (P01106 whole entry): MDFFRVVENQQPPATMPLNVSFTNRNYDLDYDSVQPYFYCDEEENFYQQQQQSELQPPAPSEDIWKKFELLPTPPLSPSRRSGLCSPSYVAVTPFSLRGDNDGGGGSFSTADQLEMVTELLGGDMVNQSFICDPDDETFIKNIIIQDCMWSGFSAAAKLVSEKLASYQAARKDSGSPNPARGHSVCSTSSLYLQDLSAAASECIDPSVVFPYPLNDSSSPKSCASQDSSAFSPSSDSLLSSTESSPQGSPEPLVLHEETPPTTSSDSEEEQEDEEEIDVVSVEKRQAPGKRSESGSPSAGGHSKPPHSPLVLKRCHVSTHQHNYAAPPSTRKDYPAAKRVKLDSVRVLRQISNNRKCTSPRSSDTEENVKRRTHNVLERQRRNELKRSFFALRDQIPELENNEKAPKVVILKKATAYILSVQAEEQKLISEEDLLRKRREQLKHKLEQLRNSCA

In the case of `CCc1ccc(Oc2c[nH]nc2-c2ccc(OCc3ccc(Cl)cc3)cc2O)cc1` [NUCC-0176243], the remaining activity at 200 µM (EMSA, 200 uM test compound) turned out to be 19%.
Consider `CCc1ccc(Oc2c[nH]nc2-c2ccc(OCc3ccc(C(F)(F)F)cc3)cc2O)cc1` [NUCC-0176244], for which the remaining activity at 200 µM (EMSA, 200 uM test compound) worked out at 20%.
Broadly, the pIC50 is −log10 of the IC50, conventionally taken in molar units. Turning to `CCc1ccc(Oc2c(-c3ccc(OCCc4cccc(C(F)(F)F)c4)cc3O)n[nH]c2C(F)(F)F)cc1` [NUCC-0176245], the pIC50 is 4.02. Moreover, where the note is “EMSA”, the remaining activity at 100 µM came out at 36%. In addition, the remaining activity at 200 µM (EMSA, 200 uM test compound) stood at 0%.
As for `CCc1ccc(Oc2c[nH]nc2-c2ccc(OCc3cnn(C)c3)cc2O)cc1` [NUCC-0176246], the remaining activity at 200 µM (EMSA, 200 uM test compound) is 87%.
As for `Oc1cc(OCc2ccc(Cl)cc2)ccc1-c1n[nH]cc1Oc1ccccc1` [NUCC-0176247], the remaining activity at 200 µM (EMSA, 200 uM test compound) came out at 18%.
Take `Cc1[nH]nc(-c2ccc(OCc3cnn(C)c3)cc2O)c1Oc1ccccc1` [NUCC-0176249]: where the note is “EMSA, 200 uM test compound”, the remaining activity at 200 µM came out at 85%.
For the compound `Oc1cc(OCc2ccncc2)ccc1-c1n[nH]cc1Oc1ccccc1` [NUCC-0176251], for the setting “EMSA, 200 uM test compound”, the remaining activity at 200 µM came out at 62%.
Take `Cc1[nH]nc(-c2ccc(OCc3ccncc3)cc2O)c1Oc1ccccc1` [NUCC-0176252]: the remaining activity at 200 µM (EMSA, 200 uM test compound) was 87%.
Consider `Cc1[nH]nc(-c2ccc(OCc3ccc(Cl)cc3)cc2O)c1Oc1ccccc1` [NUCC-0176253], for which the remaining activity at 200 µM (EMSA, 200 uM test compound) was found to be 39%.
The same measure, in the same setting: for `CCc1ccc(Oc2c[nH]nc2-c2ccc(OCc3ccncc3)cc2O)cc1` [NUCC-0176254] the value was 101%; for `Oc1cc(OCc2ccccc2)ccc1-c1n[nH]cc1Oc1ccccc1` [NUCC-0176255], 11%.
Consider `CCc1ccc(Oc2c[nH]nc2-c2ccc(OCC3CCCCC3)cc2O)cc1` [NUCC-0176256], for which the “Bound DNA (%) (200uM)” value (EMSA, 200 uM test compound) amounted to 100%. In addition, the “% Fraction Bound” value (Table 1, concentration not printed in the table (FIG. 5 and 6 legends: 200 μM test compounds)) was determined as 9.1%.
Take `CCc1ccc(Oc2c[nH]nc2-c2ccc(OCc3ccc(F)cc3)cc2O)cc1` [NUCC-0176257]: the remaining activity at 200 µM (EMSA, 200 uM test compound) worked out at 7%.
On the same count and under the same terms, then `CCc1ccc(Oc2c[nH]nc2-c2ccc(OCCc3ccc(F)cc3)cc2O)cc1` [NUCC-0176258], with 17%; and `Cc1[nH]nc(-c2ccc(OCc3ccc(F)cc3)cc2O)c1Oc1ccccc1` [NUCC-0176259], with 26%.
In the case of `CCc1ccc(Oc2cn(C)nc2-c2ccc(OCc3ccc(Cl)cc3)cc2O)cc1` [NUCC-0176260], the remaining activity at 200 µM (EMSA, 200 uM test compound) was found to be 113%.
As to `CCc1ccc(Oc2c[nH]nc2-c2ccc(OCCc3ccc(Cl)cc3)cc2O)cc1` [NUCC-0176261], under “EMSA, 200 uM test compound”, the remaining activity at 200 µM is 25%.
As to `Cc1[nH]nc(-c2ccc(OCCc3ccc(Cl)cc3)cc2O)c1Oc1ccccc1` [NUCC-0176262], the remaining activity at 200 µM (EMSA, 200 uM test compound) was found to be 54%.
Take `CCc1ccc(Oc2c(-c3ccc(OCc4ccc(Cl)cc4)cc3O)n[nH]c2CC)cc1` [compound 0196282]: the remaining activity at 100 µM (EMSA) is 87%.
Take `COc1ccc(-c2c(-c3ccc(OCc4ccc(Cl)cc4)cc3O)n[nH]c2C(F)(F)F)cc1OC` [compound 0196283]: the pIC50 was 4.31. Moreover, the remaining activity at 100 µM (EMSA) stood at 4%.
`Cc1ccc(C)c(Oc2c[nH]nc2-c2ccc(OCc3ccc(Cl)cc3)cc2O)c1` [compound 0196284]: where the note is “EMSA”, the remaining activity at 100 µM turned out to be 59%.
Consider `Cc1ccc(C)c(Oc2cn(C)nc2-c2ccc(OCc3ccc(Cl)cc3)cc2O)c1` [compound 0196285], for which, for the setting “EMSA”, the remaining activity at 100 µM was 118%.
Consider `Cc1ccc(C)c(Oc2c[nH]nc2-c2ccc(OCc3cccc(Cl)c3)cc2O)c1` [compound 0196286], for which, where the note is “EMSA”, the remaining activity at 100 µM was found to be 65%.
On the same count and under the same terms, then `Cc1ccc(C)c(Oc2cn(C)nc2-c2ccc(OCc3cccc(Cl)c3)cc2O)c1` [compound 0196287], with 115%.
Same read-out and setting: for `COc1cccc(COc2ccc(-c3n[nH]cc3Oc3cc(C)ccc3C)c(O)c2)c1` [compound 0196288] the value was 81%; for `COc1cccc(COc2ccc(-c3nn(C)cc3Oc3cc(C)ccc3C)c(O)c2)c1` [compound 0196289], 136%.
The same measure, in the same setting: then `Cc1ccc(C)c(Oc2c[nH]nc2-c2ccc(OCc3ccc4ccccc4c3)cc2O)c1` [compound 0196290], with 92%; and `Cc1ccc(C)c(Oc2cn(C)nc2-c2ccc(OCc3ccc4ccccc4c3)cc2O)c1` [compound 0196291], with 110%; and `CCc1ccc(Oc2c(-c3ccc(OCc4ccc(Cl)cc4)cc3O)nn(C)c2CC)cc1` [compound 0196294], with 106%.
As to `CCc1ccc(Oc2c(-c3ccc(OCc4cccc(Cl)c4)cc3O)n[nH]c2C(F)(F)F)cc1` [compound 0196295], the pIC50 is 4.18. In addition, the remaining activity at 100 µM (EMSA) is 12%.
For the compound `CCc1ccc(Oc2c(-c3ccc(OCc4cccc(Cl)c4)cc3O)nn(C)c2C(F)(F)F)cc1` [compound 0196296], the remaining activity at 100 µM (EMSA) amounted to 73%.
Consider `CCc1ccc(Oc2c(-c3ccc(OCc4cccc(OC)c4)cc3O)n[nH]c2C(F)(F)F)cc1` [compound 0196297], for which the remaining activity at 100 µM (EMSA) came to 45%.
As to `CCc1ccc(Oc2c(-c3ccc(OCc4cccc(OC)c4)cc3O)nn(C)c2C(F)(F)F)cc1` [compound 0196298], under “EMSA”, the remaining activity at 100 µM came to 98%.
On the same count and under the same terms, then `Cc1ccc(C)c(Oc2cn(C)nc2-c2ccc(OCCN3CCCCC3)cc2O)c1` [compound 0196299], with 138%.
Still for that read-out and setting: for `Oc1cc(OCc2ccc(Cl)cc2)ccc1-c1n[nH]c(C(F)(F)F)c1Oc1cccc(F)c1` [compound 0196301] the value was 43%; for `Cn1nc(-c2ccc(OCc3ccc(Cl)cc3)cc2O)c(Oc2cccc(F)c2)c1C(F)(F)F` [compound 0196302], 65%.
On the same count and under the same terms, then `Oc1cc(OCc2ccc(Cl)cc2)ccc1-c1n[nH]cc1Oc1ccc(Cl)cc1` [compound 0196303], with 72%; and `Cn1nc(-c2ccc(OCc3ccc(Cl)cc3)cc2O)c(Oc2ccccc2Cl)c1C(F)(F)F` [compound 0196304], with 13%.
`Cn1cc(Oc2ccccc2Cl)c(-c2ccc(OCc3ccc(Cl)cc3)cc2O)n1` [compound 0196305]: the pIC50 is 4.41. Besides, for the setting “EMSA”, the remaining activity at 100 µM came to 3%.
Take `COc1ccc(-c2c(-c3ccc(OCc4ccc(Cl)cc4)cc3O)noc2C(F)(F)F)cc1OC` [compound 0196306]: the remaining activity at 100 µM (EMSA) is 71%.
On the same count and under the same terms, then `COc1ccc(-c2c(-c3ccc(OCc4ccc(Cl)cc4)cc3O)nn(C)c2C(F)(F)F)cc1OC` [compound 0196311], with 94%; and `COc1ccc(-c2c(-c3ccc(OCc4ccc(Cl)cc4)cc3O)n[nH]c2C(F)(F)F)cc1` [compound 0196312], with 51%; and `Oc1cc(OCc2ccc(Cl)cc2)ccc1-c1cc(C(F)(F)F)[nH]n1` [compound 0196313], with 1%.
Consider `Cn1nc(-c2ccc(OCc3ccc(Cl)cc3)cc2O)cc1C(F)(F)F` [compound 0196314], for which the remaining activity at 100 µM (EMSA) came out at 76%.
The same measure, in the same setting: then `COc1ccc(-c2c(-c3ccc(OCc4ccc(Cl)cc4)cc3O)nn(C)c2C(F)(F)F)cc1` [compound 0196340], with 35%; and `Cn1nc(-c2ccc(OCCN3CCOCC3)cc2O)c(Oc2ccccc2Cl)c1C(F)(F)F` [compound 0196341], with 154%; and `Oc1cc(OCc2ccc(Cl)cc2)ccc1-c1n[nH]c(C(F)(F)F)c1Oc1ccccc1Cl` [compound 0196342], with 1%.
With `Oc1cc(OCc2ccc(Cl)cc2)ccc1-c1n[nH]cc1Oc1ccccc1Cl` [compound 0196343], the remaining activity at 100 µM (EMSA) stood at 48%.
The same measure, in the same setting: for `Cc1ccc(-c2c(-c3ccc(OCc4ccc(Cl)cc4)cc3O)n[nH]c2C(F)(F)F)cc1` [compound 0196344] the value was 16%.
The same measure, in the same setting: for `Cc1ccc(-c2c[nH]nc2-c2ccc(OCc3ccc(Cl)cc3)cc2O)cc1` [compound 0196345] the value was 102%; for `Cc1ccc(-c2cn(C)nc2-c2ccc(OCc3ccc(Cl)cc3)cc2O)cc1` [compound 0196346], 114%; for `Oc1cc(OCc2ccc(Cl)cc2)ccc1-c1n[nH]c(C(F)(F)F)c1-c1ccc(F)cc1` [compound 0196347], 47%.
Still for that read-out and setting: then `Cn1nc(-c2ccc(OCc3ccc(Cl)cc3)cc2O)c(-c2ccc(F)cc2)c1C(F)(F)F` [compound 0196348], with 9%.
Regarding `Cn1cc(-c2ccc(F)cc2)c(-c2ccc(OCc3ccc(Cl)cc3)cc2O)n1` [compound 0196349], for the setting “EMSA”, the remaining activity at 100 µM came out at 135%.
Same read-out and setting: for `Oc1cc(OCc2ccc(Cl)cc2)ccc1-c1n[nH]cc1-c1cccc(Cl)c1` [compound 0196350] the value was 18%; for `Cn1cc(-c2cccc(Cl)c2)c(-c2ccc(OCc3ccc(Cl)cc3)cc2O)n1` [compound 0196351], 130%; for `CCc1ccc(Oc2c(-c3ccc(OCc4ccc(Cl)cc4)cc3OC)nn(C)c2C(F)(F)F)cc1` [compound 0196352], 65%.
Same read-out and setting: for `CCc1ccc(Oc2c(-c3ccc(OCc4ccc(Cl)cc4)cc3)nn(C)c2C(F)(F)F)cc1` [compound 0196353] the value was 122%; for `CCc1ccc(Oc2c(-c3ccc(OCc4ccc(Cl)c(Cl)c4)cc3O)nn(C)c2C(F)(F)F)cc1` [compound 0196354], 82%.
On the same count and under the same terms, then `CCc1ccc(Oc2c(-c3ccc(OCc4ccc(Cl)c(Cl)c4)cc3O)n[nH]c2C(F)(F)F)cc1` [compound 0196355], with 25%.
On to `CCc1ccc(Oc2c(-c3ccc(OCCc4ccc(Cl)cc4)cc3O)nn(C)c2C(F)(F)F)cc1` [compound 0196356], for which, where the note is “EMSA”, the remaining activity at 100 µM amounted to 68%.
